We go through 18 molecules from PubChem BioAssay (NCI).

The structures appear in SMILES notation.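 How tested: cells in 96-well plates exposed to compound for 48 hours at five concentrations. At the GI50, growth is halved. Definition used: TGI = concentration required for complete inhibition of growth.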 Where only a bound is given, the exact number is not on record here.

One assay deals with DLD-1 colon. As to the kind of experiment: inhibition of tumour cell growth, NCI panel, 48 h.
For the molecule `N#CCC(=O)N/N=C1/C(=O)N(c2ccc(Cl)cc2)C(=O)C(=O)C1c1nc2ccccc2s1` (stereo not drawn), the TGI was above 100 µM.

For the molecule `CCCCCCCCCCCC(=O)OCCOCCOCCOCCOCCOC(=O)CCCCCCCCCCC`, the TGI was above 100 µM.

The molecule `O=C1COc2cc(NC(=S)Nc3ccccc3)ccc2N1` returned a TGI above 100 µM.

`O=S(=O)(C1=CC(S(=O)(=O)c2ccccc2)CN(Cc2ccccc2)C1c1cccc2ccccc12)c1ccccc1` (stereo not drawn) showed a TGI above 69 µM.

`O=C1C=C(Nc2ccccc2C(=O)CC(=O)C(=O)Nc2cccc([N+](=O)[O-])c2)c2ccccc2C1=O` gave a TGI above 100 µM.

`CNC(=O)OCc1nc(SSC(C)(C)C)n(C)c1COC(=O)NC`: the TGI was 3.18 µM.

As for `O=C(Nc1ccc(Cl)cc1)C1C(=O)C(=O)N(c2ccc(Cl)cc2)C1=O` (stereo not drawn), the TGI is above 100 µM.

Turning to `CCC[CH2][Sn]([CH2]CCC)([O]C(=O)CN)[O]C(=O)CN`, the GI50 is 92.7 µM and the TGI is above 100 µM.

For `O=C(Nc1ccc(C(F)(F)F)cc1[N+](=O)[O-])C(=O)C1NC(=S)NC1=O` (stereo not drawn), the TGI was above 100 µM.

Take `N[C@H](C(=O)O)[C@@H]1CC(Cl)=NO1`: the TGI is above 1000 µM.

In the case of `O=C(Nc1cccc(O)c1)C(=O)C1C(=O)NC(=S)NC1=O`, the TGI was above 100 µM.

On to `O=C1N/C(=C\[N+](=O)[O-])c2ccccc21`, for which the TGI was above 100 µM.

Turning to `COC(=O)C(=O)CC(=O)CCn1[nH]c(=O)c(Cl)c(Cl)c1=O`, the TGI is above 100 µM.

With `Nc1ncnc2c1ncn2C1C=C(CO)C(O)C1O` (stereo not drawn), the TGI was above 100 µM.

On to `Cc1cc(N(CC(C)Br)CC(C)Br)ccc1N=Nc1ccccc1C(=O)O` (stereo not drawn), for which the TGI amounted to 16.6 µM.

`CN(C)CCC(=O)N1C/C(=C\c2ccc(Cl)c(Cl)c2)C(=O)/C(=C/c2ccc(Cl)c(Cl)c2)C1` came in with a TGI of 0.468 µM.

With `CCOC(=O)[CH-]C(=O)C12CC3CC(CC(C3)C1)C2.CCOC(=O)[CH-]C(=O)C12CC3CC(CC(C3)C1)C2.CC[O-].CC[O-].[Ti+4]`, the GI50 is above 100 µM and the TGI was above 100 µM.

Turning to `COc1ccc2nc3cc(Cl)ccc3c(Sc3ccc([N+](=O)[O-])cc3C)c2c1`, the TGI was above 100 µM.

The test system of the next assay is DU-145 prostate. As to the kind of experiment: inhibition of tumour cell growth, NCI panel, 48 h.
`CNC(=O)OCc1nc(SSC(C)(C)C)n(C)c1COC(=O)NC` gave a TGI of 33.3 µM.

Regarding `N[C@H](C(=O)O)[C@@H]1CC(Cl)=NO1`, the GI50 was 99.6 µM and the TGI is above 1000 µM.

With `Nc1ncnc2c1ncn2C1C=C(CO)C(O)C1O` (stereo not drawn), the TGI turned out to be 35.8 µM.

The molecule `Cc1cc(N(CC(C)Br)CC(C)Br)ccc1N=Nc1ccccc1C(=O)O` (stereo not drawn) showed a TGI of 20 µM.

Turning to `CN(C)CCC(=O)N1C/C(=C\c2ccc(Cl)c(Cl)c2)C(=O)/C(=C/c2ccc(Cl)c(Cl)c2)C1`, the TGI stood at 0.867 µM.

The next assay relates to HOP-92 NSCLC. In words: inhibition of tumour cell growth, NCI panel, 48 h.
As for `N#CCC(=O)N/N=C1/C(=O)N(c2ccc(Cl)cc2)C(=O)C(=O)C1c1nc2ccccc2s1` (stereo not drawn), the TGI was above 100 µM.

Turning to `CCCCCCCCCCCC(=O)OCCOCCOCCOCCOCCOC(=O)CCCCCCCCCCC`, the TGI is above 100 µM.

The molecule `O=C1COc2cc(NC(=S)Nc3ccccc3)ccc2N1` yielded a TGI above 100 µM.

On to `O=S(=O)(C1=CC(S(=O)(=O)c2ccccc2)CN(Cc2ccccc2)C1c1cccc2ccccc12)c1ccccc1` (stereo not drawn), for which the TGI is above 69 µM.

Molecule `O=C1C=C(Nc2ccccc2C(=O)CC(=O)C(=O)Nc2cccc([N+](=O)[O-])c2)c2ccccc2C1=O` showed a TGI above 100 µM.

`CNC(=O)OCc1nc(SSC(C)(C)C)n(C)c1COC(=O)NC` gave a TGI of 3.67 µM.

`O=C(Nc1ccc(Cl)cc1)C1C(=O)C(=O)N(c2ccc(Cl)cc2)C1=O` (stereo not drawn) registered a TGI of 69.3 µM.

Regarding `CCC[CH2][Sn]([CH2]CCC)([O]C(=O)CN)[O]C(=O)CN`, the GI50 is 73.2 µM and the TGI was above 100 µM.

For the molecule `O=C(Nc1ccc(C(F)(F)F)cc1[N+](=O)[O-])C(=O)C1NC(=S)NC1=O` (stereo not drawn), the TGI is above 100 µM.

In turn, `N[C@H](C(=O)O)[C@@H]1CC(Cl)=NO1` came in with a TGI of 541 µM.

Take `O=C(Nc1cccc(O)c1)C(=O)C1C(=O)NC(=S)NC1=O`: the TGI is above 100 µM.

For the molecule `O=C1N/C(=C\[N+](=O)[O-])c2ccccc21`, the TGI was above 100 µM.

Consider `COC(=O)C(=O)CC(=O)CCn1[nH]c(=O)c(Cl)c(Cl)c1=O`, for which the TGI was above 100 µM.

As to `Nc1ncnc2c1ncn2C1C=C(CO)C(O)C1O` (stereo not drawn), the TGI was above 76.1 µM.

The molecule `Cc1cc(N(CC(C)Br)CC(C)Br)ccc1N=Nc1ccccc1C(=O)O` (stereo not drawn) yielded a TGI of 10 µM.

For `CN(C)CCC(=O)N1C/C(=C\c2ccc(Cl)c(Cl)c2)C(=O)/C(=C/c2ccc(Cl)c(Cl)c2)C1`, the TGI stood at 0.977 µM.

For `CCOC(=O)[CH-]C(=O)C12CC3CC(CC(C3)C1)C2.CCOC(=O)[CH-]C(=O)C12CC3CC(CC(C3)C1)C2.CC[O-].CC[O-].[Ti+4]`, the GI50 is above 100 µM and the TGI was above 100 µM.

The molecule `COc1ccc2nc3cc(Cl)ccc3c(Sc3ccc([N+](=O)[O-])cc3C)c2c1` yielded a TGI above 100 µM.

The test system of another assay is NCI-H522 lung. In words: inhibition of tumour cell growth, NCI panel, 48 h.
`N#CCC(=O)N/N=C1/C(=O)N(c2ccc(Cl)cc2)C(=O)C(=O)C1c1nc2ccccc2s1` (stereo not drawn) gave a TGI above 100 µM.

Take `CCCCCCCCCCCC(=O)OCCOCCOCCOCCOCCOC(=O)CCCCCCCCCCC`: the TGI was above 100 µM.

Molecule `O=C1COc2cc(NC(=S)Nc3ccccc3)ccc2N1` gave a TGI above 100 µM.

The molecule `O=S(=O)(C1=CC(S(=O)(=O)c2ccccc2)CN(Cc2ccccc2)C1c1cccc2ccccc12)c1ccccc1` (stereo not drawn) returned a TGI above 69 µM.

As for `O=C1C=C(Nc2ccccc2C(=O)CC(=O)C(=O)Nc2cccc([N+](=O)[O-])c2)c2ccccc2C1=O`, the TGI was determined as 70.6 µM.

`CNC(=O)OCc1nc(SSC(C)(C)C)n(C)c1COC(=O)NC` displayed a TGI of 2.69 µM.

Molecule `O=C(Nc1ccc(Cl)cc1)C1C(=O)C(=O)N(c2ccc(Cl)cc2)C1=O` (stereo not drawn) came in with a TGI above 100 µM.

For the molecule `CCC[CH2][Sn]([CH2]CCC)([O]C(=O)CN)[O]C(=O)CN`, the GI50 was 11.6 µM and the TGI amounted to 38 µM.

Molecule `O=C(Nc1ccc(C(F)(F)F)cc1[N+](=O)[O-])C(=O)C1NC(=S)NC1=O` (stereo not drawn) displayed a TGI above 100 µM.

Turning to `N[C@H](C(=O)O)[C@@H]1CC(Cl)=NO1`, the TGI amounted to 271 µM.

For `O=C(Nc1cccc(O)c1)C(=O)C1C(=O)NC(=S)NC1=O`, the TGI was above 100 µM.

As to `O=C1N/C(=C\[N+](=O)[O-])c2ccccc21`, the TGI was above 100 µM.

Regarding `COC(=O)C(=O)CC(=O)CCn1[nH]c(=O)c(Cl)c(Cl)c1=O`, the TGI is above 100 µM.

For `Nc1ncnc2c1ncn2C1C=C(CO)C(O)C1O` (stereo not drawn), the TGI is 35.6 µM.

The molecule `Cc1cc(N(CC(C)Br)CC(C)Br)ccc1N=Nc1ccccc1C(=O)O` (stereo not drawn) gave a TGI of 9.02 µM.

Molecule `CN(C)CCC(=O)N1C/C(=C\c2ccc(Cl)c(Cl)c2)C(=O)/C(=C/c2ccc(Cl)c(Cl)c2)C1` yielded a TGI of 0.455 µM.

Regarding `CCOC(=O)[CH-]C(=O)C12CC3CC(CC(C3)C1)C2.CCOC(=O)[CH-]C(=O)C12CC3CC(CC(C3)C1)C2.CC[O-].CC[O-].[Ti+4]`, the GI50 was above 100 µM and the TGI is above 100 µM.

Turning to `COc1ccc2nc3cc(Cl)ccc3c(Sc3ccc([N+](=O)[O-])cc3C)c2c1`, the TGI is above 100 µM.

The subject of another assay is KM20L2 colon. As to the kind of experiment: inhibition of tumour cell growth, NCI panel, 48 h.
Molecule `N#CCC(=O)N/N=C1/C(=O)N(c2ccc(Cl)cc2)C(=O)C(=O)C1c1nc2ccccc2s1` (stereo not drawn) registered a TGI above 100 µM.

`CCCCCCCCCCCC(=O)OCCOCCOCCOCCOCCOC(=O)CCCCCCCCCCC` gave a TGI above 100 µM.

On to `O=C1COc2cc(NC(=S)Nc3ccccc3)ccc2N1`, for which the TGI was above 100 µM.

Take `O=S(=O)(C1=CC(S(=O)(=O)c2ccccc2)CN(Cc2ccccc2)C1c1cccc2ccccc12)c1ccccc1` (stereo not drawn): the TGI was above 69 µM.

Regarding `O=C1C=C(Nc2ccccc2C(=O)CC(=O)C(=O)Nc2cccc([N+](=O)[O-])c2)c2ccccc2C1=O`, the TGI is above 100 µM.

With `CNC(=O)OCc1nc(SSC(C)(C)C)n(C)c1COC(=O)NC`, the TGI stood at 25.6 µM.

For `O=C(Nc1ccc(Cl)cc1)C1C(=O)C(=O)N(c2ccc(Cl)cc2)C1=O` (stereo not drawn), the TGI was above 100 µM.

Take `CCC[CH2][Sn]([CH2]CCC)([O]C(=O)CN)[O]C(=O)CN`: the GI50 was 63.6 µM and the TGI is above 100 µM.

Molecule `O=C(Nc1ccc(C(F)(F)F)cc1[N+](=O)[O-])C(=O)C1NC(=S)NC1=O` (stereo not drawn) came in with a TGI above 100 µM.

`N[C@H](C(=O)O)[C@@H]1CC(Cl)=NO1`: the TGI was above 1000 µM.

Turning to `O=C(Nc1cccc(O)c1)C(=O)C1C(=O)NC(=S)NC1=O`, the TGI was above 100 µM.

As to `O=C1N/C(=C\[N+](=O)[O-])c2ccccc21`, the TGI is above 100 µM.

`COC(=O)C(=O)CC(=O)CCn1[nH]c(=O)c(Cl)c(Cl)c1=O` yielded a TGI above 100 µM.

`Nc1ncnc2c1ncn2C1C=C(CO)C(O)C1O` (stereo not drawn) showed a TGI above 100 µM.

`Cc1cc(N(CC(C)Br)CC(C)Br)ccc1N=Nc1ccccc1C(=O)O` (stereo not drawn) returned a TGI of 24.2 µM.

`CN(C)CCC(=O)N1C/C(=C\c2ccc(Cl)c(Cl)c2)C(=O)/C(=C/c2ccc(Cl)c(Cl)c2)C1` showed a TGI of 1.59 µM.

As for `CCOC(=O)[CH-]C(=O)C12CC3CC(CC(C3)C1)C2.CCOC(=O)[CH-]C(=O)C12CC3CC(CC(C3)C1)C2.CC[O-].CC[O-].[Ti+4]`, the GI50 was above 100 µM and the TGI is above 100 µM.

In turn, `COc1ccc2nc3cc(Cl)ccc3c(Sc3ccc([N+](=O)[O-])cc3C)c2c1` displayed a TGI above 100 µM.

A further assay concerns ACHN renal. As to the kind of experiment: inhibition of tumour cell growth, NCI panel, 48 h.
In turn, `N#CCC(=O)N/N=C1/C(=O)N(c2ccc(Cl)cc2)C(=O)C(=O)C1c1nc2ccccc2s1` (stereo not drawn) returned a TGI above 100 µM.

As to `CCCCCCCCCCCC(=O)OCCOCCOCCOCCOCCOC(=O)CCCCCCCCCCC`, the TGI was above 100 µM.

Consider `O=C1COc2cc(NC(=S)Nc3ccccc3)ccc2N1`, for which the TGI is above 100 µM.

As to `O=S(=O)(C1=CC(S(=O)(=O)c2ccccc2)CN(Cc2ccccc2)C1c1cccc2ccccc12)c1ccccc1` (stereo not drawn), the TGI is above 69 µM.

Molecule `O=C1C=C(Nc2ccccc2C(=O)CC(=O)C(=O)Nc2cccc([N+](=O)[O-])c2)c2ccccc2C1=O` gave a TGI above 100 µM.

`CNC(=O)OCc1nc(SSC(C)(C)C)n(C)c1COC(=O)NC` returned a TGI of 8.71 µM.

`O=C(Nc1ccc(Cl)cc1)C1C(=O)C(=O)N(c2ccc(Cl)cc2)C1=O` (stereo not drawn) returned a TGI above 100 µM.
